“Also recorded” adds a separate entry of the source.
How the values were obtained:
[1] = patients with prostate cancer bone metastases; cited from earlier work
[2] = system: human melanoma cells; experiment: Hfg treatment of human melanoma cells; format: cell-based
Text: (§1) TGFbeta derived from bone fuels melanoma bone metastasis by inducing tumor secretion of pro-metastatic factors that act on bone cells to change the skeletal microenvironment. […] Hfg is active orally and by intraperitoneal injection, and it has completed Phase I clinical trials in cancer patients. It suppresses the phosphorylation and activation of Smad2 and Smad3 by inducting of Smad7. Overexpression of inhibitory Smad7 has been associated with a reduction on invasive capacity in vitro and anchorage-independent growth, and delays subcutaneous tumor growth in nude mice. The present inventors have shown that Smad7 overexpression decreased melanoma bone metastasis, thus is useful for treating and/or preventing muscle weakness and atrophy as well as other muscle related side effects in cancer patients.

[3] = models of muscular dystrophy; cited from earlier work
[4] = system: 1205Lu melanoma cells; experiment: melanoma bone metastasis in nude mice inoculated with 1205Lu melanoma cells; format: in vivo, mouse
Text: Halofuginone (Hfg) is a synthetic derivative of the plant alkaloid febrifugine, a traditional Chinese herbal medicine. Hfg increases expression of Smad7, an intracellular inhibitor of TGF-beta signaling. […] Hfg has been widely used as a veterinary agent with an excellent safety profile.
as §1

[5] = system: 1205Lu melanoma cells; conditions: mouse, in vivo; cited from earlier work
[6] = system: RyR1; experiment: RyR1 oxidation, nitrosylation and calstabin 1 depletion in EDL (immunoprecipitation/immunoblot); format: in vivo, mouse; conditions: mice with PC-3 prostate cancer metastatic to bone
Text: (§2) In embodiment A is shown that body weight is decreased in nude mice inoculated with PC-3 human prostate cancer cells and that osteolytic lesions are present in the tibia and histology of the femur, as shown in X-ray images. In embodiments B and C are shown decreased skeletal muscle cross-sectional area in tumor-bearing mice determined by Micro-CT as described herein. In embodiments D and E are shown decreased body weight (D) and decreased Grip strength (E) in PC-3 tumor bearing mice. […] In embodiment J is shown that RyR1 is oxidized and there is decreased calstabin 1 in the RyR complex from, skeletal muscle (EDL) from mice with metastatic prostate cancer. […] All immunoblots were developed and quantified with the Odyssey system (LI-COR, Inc., Lincoln, Nebr.) using IR labeled anti-mouse and anti-Rabbit IgG (1:10,000 dilution) secondary antibodies. […] Quantification of immunoblots showing the relative nitrotyrosine/SERCA for each group of EDLs tested. *p<0.01 compared to non-cancer controls as analyzed by ANOVA. […]
Quantification of RyR1 skeletal channel nitrosylation, oxidation and phosphorylation by protein kinase A (PKA) are performed as described (Bellinger et al., 2009; Bellinger et al., 2008b).
Quantification of depletion of the channel stabilizing subunit calstabin 1 (FKBP12) from skeletal RyR1 by immunoprecipitation techniques are performed as described (Marx et al., 2000). […]

[7] = system: SERCA; experiment: SERCA oxidation in EDL muscle lysates (immunoprecipitation/immunoblot); format: in vivo, mouse; conditions: prostate cancer mice
Text: In embodiment A is shown that body weight is decreased in nude mice inoculated with PC-3 human prostate cancer cells and that osteolytic lesions are present in the tibia and histology of the femur, as shown in X-ray images. In embodiments B and C are shown decreased skeletal muscle cross-sectional area in tumor-bearing mice determined by Micro-CT as described herein. In embodiments D and E are shown decreased body weight (D) and decreased Grip strength (E) in PC-3 tumor bearing mice. […] In embodiment J is shown that RyR1 is oxidized and there is decreased calstabin 1 in the RyR complex from, skeletal muscle (EDL) from mice with metastatic prostate cancer. RyR1 was immunoprecipitated from 250 μg of EDL homogenate using an anti-RyR antibody (4 μg 5029 Ab), and the immunoprecipitates were separated on SDS-PAGE gels (6% for RyR, 15% for Calstabin). All immunoblots were developed and quantified with the Odyssey system (LI-COR, Inc., Lincoln, Nebr.) using IR labeled anti-mouse and anti-Rabbit IgG (1:10,000 dilution) secondary antibodies. Immunoblots developed using anti-RyR (clone 34C, 1:5,000), anti-Cys-NO (1:1000, Sigma, St. Louis. MO), anti-DNP (to determine RyR1 oxidation. 1:250), and anticalstabin (1:2500). […] Quantification of immunoblots showing the relative nitrotyrosine/SERCA for each group of EDLs tested. *p<0.01 compared to non-cancer controls as analyzed by ANOVA. […]

[8] = system: LuCaP 23.1 human prostate cancer osteoblastic xenograft; experiment: LuCaP 23.1 osteoblastic prostate cancer xenograft in tibia of nude mice; format: in vivo, mouse
Text: (§3) These experiments utilize two murine models of prostate cancer bone metastases induced by PC-3 (osteolytic and cachectic; FIGS. 4A-K) or LuCAP23.1 (osteoblastic and not cachectic; FIGS. 5A-B).
(§4) For all mouse experiments, N=15 for each group of mice for tumors inoculated in the left cardiac ventricle (PC-3) or intratibially (LuCAP23.1) based on power analysis detailed below. Male nude mice are housed in laminar flow isolated hoods with water supplemented with vitamin K and autoclaved mouse chow provided ad libitum. Cells are introduced into mice at 4 wks of age. Animals are anesthetized with ketamine/xylazine and positioned ventral side up.
Four-week old, male nude mice were inoculated into the tibia with LuCaP 23.1 human prostate cancer osteoblastic xenograft (n=14-15/group).

[9] = system: PC-3 bone metastases; experiment: PC-3 prostate cancer bone metastases in mice; format: in vivo, mouse; conditions: 50 mg/kg starting 2 days prior to inoculation
Text: as §3, §4
Multiple modalities of bone imaging including X-ray and μCT are used to longitudinally monitor the bone lesions and confirmed by histology and quantitative histomorphometry as previously described (Dunn et al., 2009; Guise et al., 1996b; Yin et al., 1999). Muscle mass are followed serially in vivo using the Piximus II system (Wiren et al., 2011) and microCT (Manske et al., 2011).

[10] = system: EDL muscle of mice with PC-3 prostate cancer bone metastases; experiment: EDL muscle specific force production in mice with PC-3 prostate cancer bone metastases; format: in vivo, mouse; conditions: hypogonadal mice with PC-3 prostate cancer metastatic to bone
Text: as §2
Extensor digitorum longus (EDL) muscles are dissected from the hind limbs using micro dissection scissors and forceps. […] To quantify the specific force, the absolute force is normalized to the muscle cross-sectional area, calculated as the muscle weight divided by the length and a muscle density constant of […] as previously described (Yamada et al., 2009).

[11] = system: mouse mammary carcinomas; conditions: cited from earlier work
[12] = 50 or 150 mg/kg/day po from 12 weeks post tumor inoculation

Molecule: denosumab: inhibitor of bone resorption
- skeletal morbidity [1]: reduce skeletal morbidity

Molecule: O=C(CC1NCCCC1O)Cn1cnc2cc(Br)c(Cl)cc2c1=O (stereo not shown) [Halofuginone]
- TGFbeta-induced SMAD-driven transcription [2]: inhibited
- cell apoptosis [2]: increased
- cell proliferation [2]: inhibited
- expression of TGFbeta target genes (PTHrP, CTGF, CXCR4, IL11) [2]: reducing expression
- phosphorylation of SMAD proteins in response to TGFbeta [2]: inhibited
- muscle function [3]: improve muscle function
- osteolysis assessed by radiography ([4]; mice with established bone metastasis, vs placebo): significantly less osteolysis
- melanoma metastasis to the brain ([4]; mouse, in vivo): reduce melanoma metastasis to the brain
- bone metastasis ([4]; preventive protocol, nude mice inoculated with 1205Lu melanoma cells): inhibited bone metastasis
- development and progression of bone metastasis caused by melanoma cells [5]: decreases development and progression of bone metastasis

Molecule: Fc1ccc(Cl)cc1-c1nc(Nc2ccncc2)c2nccnc2n1 [SD-208]
- oxidation/nitrosylation/calstabin 1 depletion of skeletal muscle RyR1 [6]: prevented oxidation/nitrosylation/calstabin 1 depletion from RyR1; also recorded: prevented oxidation of RyR1
- oxidation of SERCA [7]: inhibited oxidation of SERCA
- bone formation [8, 12]: does not increase
- tumor growth [8, 12]: does not increase
- LuCAP23.1 bone metastases ([8]; mouse, in vivo): not effective
- PC-3 bone metastases (X-ray, osteolytic lesion area, survival) [9]: highly effective; also recorded: prevents PC-3 bone metastases
- muscle (EDL) specific force production [10]: improved muscle specific force production
- tumor growth in vivo [11]: inhibit

Reference: patent US20140127228A1 (INDIANA UNIVERSITY SCHOOL OF MEDICINE, priority 2012, published 2014)
